Earlier results, collected in paper PMC12019481 (Nature Communications, 2025).

Key:
[1] = tested on: GAT3
[2] = molecular target: GAT1 (Homo sapiens, UniProt P30531)
GAT1, sequence (P30531 whole entry): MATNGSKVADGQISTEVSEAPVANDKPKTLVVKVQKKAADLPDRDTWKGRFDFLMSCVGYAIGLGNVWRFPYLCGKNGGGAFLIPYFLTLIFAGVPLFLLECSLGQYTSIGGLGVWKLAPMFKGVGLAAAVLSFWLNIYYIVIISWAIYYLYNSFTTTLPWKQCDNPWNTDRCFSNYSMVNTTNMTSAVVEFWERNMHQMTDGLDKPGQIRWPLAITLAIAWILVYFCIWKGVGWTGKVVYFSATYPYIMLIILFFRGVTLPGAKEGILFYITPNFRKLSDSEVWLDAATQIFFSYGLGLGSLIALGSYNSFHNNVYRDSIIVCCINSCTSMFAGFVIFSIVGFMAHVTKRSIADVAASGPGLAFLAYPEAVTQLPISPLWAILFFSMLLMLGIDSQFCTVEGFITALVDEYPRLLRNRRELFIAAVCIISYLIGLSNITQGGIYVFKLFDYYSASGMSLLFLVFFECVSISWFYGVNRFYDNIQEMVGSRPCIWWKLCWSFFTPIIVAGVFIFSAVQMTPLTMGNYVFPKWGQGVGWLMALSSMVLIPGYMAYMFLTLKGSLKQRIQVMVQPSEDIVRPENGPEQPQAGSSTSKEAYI

| Compound | selectivity for GAT3 [1] | selectivity for GAT1 [2] |
| --- | --- | --- |
| 5-(2-Thienyl)Isatin | ~ 167 fold |  |
| Cc1ccsc1C(=CCCN1CCC[C@@H](C(=O)O)C1)c1sccc1C [tiagabine] |  | 10,000–20,000 fold |
